{"source": "ChEMBL document CHEMBL1135757", "about": "“Orally active, water-soluble antimalarial 3-aryltrioxanes: short synthesis and preclinical efficacy testing in rodents” (J Med Chem, 2002)"}
{"system": "Plasmodium berghei", "test": "(§1) Antimalarial activity against Plasmodium berghei in mice (Mus musculus)", "assay_type": "functional, organism-based", "units": {"IC50": "nM"}}
{"compound": "c1ccc([C@@]23CC[C@H]4CCC[C@H]5CCO[C@H](O2)[C@@]45OO3)cc1", "IC50": 1.3}
{"compound": "C[C@@H]1CC[C@H]2[C@@H](C)C(=O)O[C@@H]3O[C@@]4(C)CC[C@@H]1[C@]32OO4", "note": "[ARTEMISININ]", "IC50": 9.4}
{"compound": "Fc1ccc([C@]23CC[C@H]4CCCC[C@@]4(OO2)[C@H](OCc2ccccc2)O3)cc1", "IC50": 31}
{"system": "Plasmodium berghei", "test": "as §1", "assay_type": "functional", "units": {"ED50": "mg/kg", "ED90": "mg/kg"}}
{"compound": "O=C(O)c1ccc([C@@]23CC[C@H]4CCC[C@H]5CCO[C@H](O2)[C@@]45OO3)cc1", "ED50": 15, "ED90": 51}
{"compound": "C[C@@H]1[C@H](OCc2ccc(C(=O)O)cc2)O[C@@H]2O[C@@]3(C)CC[C@@H]4[C@@H](C)CC[C@@H]1[C@]24OO3", "note": "[ARTELINIC ACID]", "ED50": 9.6, "ED90": 29}
{"compound": "O=C(O)c1ccc([C@]23CC[C@H]4CCCC[C@@]4(OO2)[C@H](OCc2ccccc2)O3)cc1", "ED50": 17, "ED90": 59}
